Tested on: Plasmodium falciparum
Assay: GSK_TCMDC: Inhibition of Plasmodium falciparum 3D7 in whole erythrocytes, using parasite LDH activity as an index of growth.
Assay type: functional, organism-based
Conditions: Plasmodium falciparum, 3D7

| Compound | XC50 |
| --- | --- |
| CN1CCN(c2ccc(Nc3c4ccccc4nc4ccccc34)cc2)CC1 | 645 nM |
| CCc1nc(N)nc(N)c1-c1cccc(Cl)c1 | 193 nM |
| c1ccc2c(NCCCCCCNc3c4ccccc4nc4ccccc34)c3ccccc3nc2c1 | 753 nM |
| COc1cc2c(=O)c(Cc3ccc(Cl)cc3)c(C)[nH]c2cc1F | 1160 nM |
| Cc1c(Cl)cccc1S(=O)(=O)Nc1cccc(CCN2CCC(N3CCCCC3)CC2)c1 | 830 nM |
| Cc1nc(Nc2ccc(C)c(Cl)c2)c2c(C)noc2n1 | 886 nM |
| CCCC(CNCc1ccccc1)CNc1cc(=O)c2ccccc2[nH]1 (stereo not given) | 1020 nM |
| O=C(c1ccc([N+](=O)[O-])o1)N1CCN(c2ccccc2)CC1 | 40 nM |
| CCn1c(-c2nonc2N)nc2c(Cl)ncc(O[C@H](CCN)c3ccccc3F)c21 | 1460 nM |
| Fc1cc(Cl)ccc1Nc1ccnc2cc(-c3ccc(CN4CCOCC4)o3)ccc12 | 639 nM |
| CN(C)CCOc1cc(NC(=O)Nc2ccc(-c3ccccc3)cc2Cl)ccc1I | 245 nM |
| CNc1cc(-c2ccc3ccnc(N)c3c2)nc(N)n1 | 119 nM |
| CN(C)CC(=O)Nc1cccc(Nc2nccc(NCC(O)c3ccccc3)n2)c1 (stereo not given) | 983 nM |
| O=C(/C=C/c1ccc(Cl)c(Cl)c1)N1CCC(CCN2CCc3[nH]c4ccccc4c3C2)CC1 | 886 nM |
| N#CCCn1nc(-c2ccc(Cl)cc2)c2c(c1=O)CCCC2 | 892 nM |
| CN(C)c1ccc(N2C(N)=NC(N)=NC23CCCC3)cc1 | 935 nM |
| COc1ccc2nccc(N3CCC(O)(CCNCc4ccc5c(n4)NC(=O)CS5)CC3)c2n1 | 648 nM |
| O=C(Nc1ccc(C(=O)Nc2ccc(C3=NCCN3)cc2)cc1)Nc1ccc(C2=NCCN2)cc1 | 180 nM |
| CC(=O)Nc1cccc(C(=O)Nc2cccc(-c3cccc(-c4nc5cc(F)ccc5[nH]4)c3)c2)c1 | 549 nM |
| Clc1ccc2c(NN=Cc3cccnc3)ccnc2c1 | 696 nM |
| COc1ccc(C=NN=c2cc(C)[nH]c3ccccc23)c(OC)c1 | 616 nM |
| O=C(/C=C/c1ccccc1Cl)Nc1ccc(Br)c(OCCN2CCCCC2)c1 | 168 nM |
| CC(C)C(=O)ONC1=NC(=N)N(OCCCOc2cc(Cl)c(Cl)cc2Cl)C(C)(C)N1 | 3.2 nM |
| CC(Cc1ccc(OCCCCOc2ccccc2)cc1)NCCc1ccc(Oc2ccccc2)cc1 (stereo not given) | 812 nM |
| O=C(NC1CCC(CN2CCC(c3c[nH]c4ccccc34)CC2)CC1)c1cn(Cc2ccccc2)c2ccccc12 (stereo not given) | 1130 nM |

| Compound | XC50 |
| --- | --- |
| NC(=O)c1ccc(NC(=O)CN(Cc2ccc(Cl)cc2)S(=O)(=O)c2ccccc2)cc1 | 653 nM |
| Cc1[nH]c(C)c(-c2ccc(OCc3ccccc3)cc2)c(=O)c1Br | 280 nM |
| Nc1cc(-c2ccc(Br)cc2O)nc2ccccc12 | 619 nM |
| O=C(C=Cc1ccc(Cl)c(Cl)c1)NCCCCCN1CCC(c2n[nH]c3ccccc23)CC1 | 638 nM |
| Nc1nc(N)c2c(ccc3[nH]c(-c4ccccc4Cl)nc32)n1 | 231 nM |
| Cc1cc(N[C@@H](Cc2ccccc2)C(=O)NCCOc2ccccc2)nc(NCCc2ccccc2)n1 | 1030 nM |
| CC(=O)N(Cc1ccccc1-c1cccc(CNCc2ccc3c(c2)OCO3)c1)C1CCN(Cc2ccccc2)CC1 | 1050 nM |
| CN1CC[C@H](N(Cc2ccccc2F)c2ccc(C#N)c(Cl)c2)C1 | 1270 nM |
| Cc1cc(NCC2CCN(CC3CCCCC3)C2)nc(Nc2ccc(Br)cc2)n1 (stereo not given) | 879 nM |
| O=C(/C=C/c1ccc(Cl)c(Cl)c1)NCCCCCN1CCC(NS(=O)(=O)c2cc(Cl)cc(Cl)c2)CC1 | 1240 nM |
| CC(=O)c1ccc(NC(=O)Nc2ccc3nccc(N4CCN(C)CC4)c3c2)cc1 | 432 nM |
| CC1(C)N=C(N)N=C(Nc2ccc(Cl)cc2)N1 | 336 nM |
| COc1c(C(=O)NC2CCN(Cc3ccccc3)C2)cnc2ccccc12 (stereo not given) | 956 nM |
| Cc1cc(N[C@@H](Cc2ccccc2)C(=O)Nc2ccccc2)nc(Nc2ccccc2)n1 | 1010 nM |
| c1ccc2[nH]c(-c3ccc(-c4ccc(CN5CCN(CCN6CCOCC6)CC5)cc4)cc3)nc2c1 | 158 nM |
| c1cc(-c2ccc(CNC3CC3)cc2)cc(-c2nc3ccccc3[nH]2)c1 | 1660 nM |
| CCN(CC)CC(O)c1cc(-c2ccc(OC)cc2)nc2cc(Cl)ccc12 (stereo not given) | 67.1 nM |
| FC(F)(F)c1ccc2[nH]ccc(=NN=Cc3cccnc3)c2c1 | 625 nM |
| CC(C)NCc1cccc(-c2cccc(-c3nc4cc(F)ccc4[nH]3)c2)c1 | 285 nM |
| Oc1ccc(CCNc2nc(NCc3ccccc3-c3ccc(F)cc3)nc(N3CCNCC3)n2)cc1 | 1070 nM |
| Cc1ccc(S(=O)(=O)NC2=NC(=N)N(OCc3ccc(Cl)c(Cl)c3)C(C)(C)N2)cc1 | 1140 nM |
| CN1CCCN(Cc2cccc(-c3ccc(CNC(=O)c4cccc(Cl)c4)c(F)c3)c2)CC1 | 190 nM |
| CCOC(=O)c1ccc(NC(=O)c2ccccc2C(=O)O)cc1 | 922 nM |
| O=C(Nc1ccc(F)cc1)c1cnc(N2CCN(c3ccncc3)CC2)c(Cl)c1 | 735 nM |
| O=C(Nc1ccc(-c2csc(-c3nc4ccccc4[nH]3)c2)cc1)Nc1ccc(Cl)c(Cl)c1 | 402 nM |

| Compound | XC50 |
| --- | --- |
| CCCNCc1ccc(-c2ccc(CN(CCOC)C(=O)c3cnc(C)cn3)cc2)nc1 | 1250 nM |
| CCCc1cc(=O)[nH]c(-n2nc(C)cc2NC(=O)c2cc3ccccc3o2)n1 | 1110 nM |
| CN(C)CCNCc1ccc(-c2ccc3c(Nc4ccc(Cl)cc4F)ccnc3c2)o1 | 208 nM |
| Nc1cccc(CNCc2cccc(-c3ccc(-c4nc5ccccc5[nH]4)s3)c2)c1 | 604 nM |
| O=C(Nc1ccc(Cl)cc1)N1CCN(C2CCCCC2)CC1 | 986 nM |
| CN(C)CCN(C)Cc1ccc(-c2ccc(NS(=O)(=O)c3cccc4cccnc34)cc2)cc1 | 864 nM |
| Cc1[nH]c2ccc(NS(C)(=O)=O)cc2c1C1CCN(CC2CCN(C(=O)/C=C/c3ccc(Cl)c(Cl)c3)CC2)CC1 | 684 nM |
| O=C(/C=C/c1ccc(Cl)c(Cl)c1)N1CCC(CCN2CCC(c3nc4cc(O)ccc4[nH]3)CC2)CC1 | 344 nM |
| CCCCCC(C)N/C(=N/c1cccc(Cl)c1Cl)Nc1ccc(C#N)cc1O (stereo not given) | 805 nM |
| S=C(NCCCCCN1CCC(c2c[nH]c3ccccc23)CC1)Nc1ccc(Cl)c(Cl)c1 | 709 nM |
| Cc1cnc(N2CCN(CCCN3CCCC3)CC2)nc1Oc1ccc(-n2ccnc2)cc1 | 898 nM |
| COc1ccccc1Cn1ccnc1SCC(=O)Nc1cccc(C(F)(F)F)c1 | 907 nM |
| CCOc1ccc2nc(N(CCCn3ccnc3)C(=O)C=Cc3cccs3)sc2c1 | 777 nM |
| CCCCCCCN1C2CCC1CC(CCOc1ccnc3ccc(OC)cc13)C2 (stereo not given) | 389 nM |
| CC[C@H]1CN2CC[C@H]1C[C@H]2C(O)c1cc(OC)nc2ccccc12 (stereo not given in full) | 141 nM |
| CN1CCN(CCCN(Cc2cccc(-c3ccc(CNCCc4ccccc4)cc3)c2)C(=O)c2cccs2)CC1 | 716 nM |
| COc1ccc(-c2ccc(NC(=O)c3cccc(F)c3)cc2)cc1CN1CCCN(C)CC1 | 672 nM |
| Cc1ccc(Cn2nc(Cl)c(N3CCCNCC3)cc2=O)cc1NC(=O)Nc1ccc(-c2ccccc2)cc1 | 667 nM |
| O=C(Nc1ccc(C(=O)N2CCN(CCN3CCN(c4cccc(C(F)(F)F)c4)CC3)CC2)cc1)c1ccc(C(F)(F)F)cc1 | 690 nM |
| CC1CCCN(S(=O)(=O)c2ccc(NC(=O)c3cc(-c4ccccc4O)n[nH]3)cc2)C1 (stereo not given) | 757 nM |
| Cc1nnc2c(NC(=O)NC3CCCC3)cc3ccc(-c4cccc(CN(C)C)c4)cc3n12 | 1160 nM |
| c1ccc(CNCc2ccc(-c3ccc(-c4nc5ccccc5[nH]4)cc3)cc2)cc1 | 338 nM |
| CC(C)n1ncc2c(C(=O)N3CCCc4ccccc43)cc(-c3ccccc3)nc21 | 601 nM |
| Cc1nc(C)c(-c2ccc(Sc3ccc(Cl)cc3)cc2)c(O)c1Br | 138 nM |
| COc1ccccc1Cc1c(C)nc2nc(N)nc(N)c2c1C | 569 nM |

| Compound | XC50 |
| --- | --- |
| N=C(N)Nc1nccc(NCc2ccccc2)n1 | 895 nM |
| O=C(Nc1ccc(-c2nc3ccccc3[nH]2)cc1)C1CCN(Cc2ccc(F)cc2)CC1 | 838 nM |
| CCNc1cc(C(=O)N[C@@H](Cc2cc(F)cc(F)c2)[C@H](O)CNCc2cccc(C(F)(F)F)c2)cc(N2CCCCS2(=O)=O)c1 | 613 nM |
| O=C(Nc1ccc(N2CCN(Cc3ccccc3Cl)CC2)cc1)c1ccc([N+](=O)[O-])o1 | 975 nM |
| Cc1cc(N[C@@H](Cc2ccccc2)C(=O)NCCOc2ccccc2)nc(NCCOc2ccccc2)n1 | 1360 nM |
| Cc1cccc(CN2CCCC3(CCN(Cc4ccccc4O)C3)C2)c1 (stereo not given) | 801 nM |
| Cc1cccc2nc(-c3ccc(-c4cccc(CNCc5ccc(CN)cc5)c4)s3)[nH]c12 | 606 nM |
| CCCS(=O)(=O)N1CCC(CO)(Cc2ccccc2C(F)(F)F)CC1 | 885 nM |
| COc1cc(-c2nc(-c3ccncc3)c(-c3ccc4c(c3)CCC4=NO)[nH]2)ccc1OCCN1CCCCC1 | 789 nM |
| Cc1ccc2c(=NN=CC=Cc3ccccc3)cc(C)[nH]c2c1 | 1120 nM |
| CC(C)(C)c1ccc(NC(=O)N[C@@H]2CCN(c3ccnc4ccccc34)C2)cc1 | 350 nM |
| COc1cccc(CNC(=O)c2cc(CNCc3ccccc3)ccc2-c2cccc(CNCc3ccc(-c4ccccc4)cc3)c2)c1 | 847 nM |
| O=C(Nc1ccc(Cl)cc1)Nc1ccc(OCC(O)CN2CCCCC2)cc1 (stereo not given) | 1160 nM |
| CC(C)N1CCN(c2ccc(OCCCN3CCN(c4cccc(Cl)c4Cl)CC3)c(C(F)(F)F)c2)CC1 | 810 nM |
| COc1cccc(-c2csc(C(=O)NCC3CCN(Cc4ccc(C(C)(C)C)cc4)C3)c2)c1 (stereo not given) | 1180 nM |
| CN1CCCC1CCNc1ncc2c(-c3ccc(NC(=O)Nc4cc(C(F)(F)F)ccc4F)c(F)c3)nn(C)c2n1 (stereo not given) | 287 nM |
| Cn1nccc1C(=O)NCCNCc1cccc(-c2cccc(-c3nc4cc(C(F)(F)F)ccc4[nH]3)c2)c1 | 172 nM |
| COc1cccc(-c2cc(C(F)(F)F)n3ncc(C(=O)Nc4cc(Cl)ccc4O)c3n2)c1 | 203 nM |
| C=CCc1cc(C2CCN(CCCCNC(=O)c3ccc(-c4ccc(C#N)cc4)cc3)CC2)c(OCC(N)=O)c2c1CCCC2 | 799 nM |
| COC(=O)c1c(C#N)c(OC)cc(O)c1CSC[C@H](Nc1nc(-c2ccc([N+](=O)[O-])cc2)cs1)C(=O)NCCN1CCCCC1 | 1060 nM |
| Cc1ccc2nc(-c3ccc(C(=O)NC4CCN(Cc5ccccc5)CC4)cc3)[nH]c2c1C | 729 nM |
| CCCCCN1CCCC1CNS(=O)(=O)c1cccc(C(=O)Nc2cccc(C(F)(F)F)c2)c1 (stereo not given) | 770 nM |
| O=C(NC1CCN(CCN2CCc3ccccc3CC2)CC1)c1ccc(-c2ccc(C(F)(F)F)cc2)cc1 | 935 nM |
| CCC(C)CN1CCN(c2ccc(NC(=O)c3cccs3)cc2)CC1C (stereo not given) | 655 nM |
| Cc1cccc2nc(-c3ccc(-c4cccc(NCc5cn6cccnc6n5)c4)cc3)[nH]c12 | 787 nM |

— ChEMBL document CHEMBL1157539, “Thousands of chemical starting points for antimalarial lead identification” (Nature, 2010)
